In assay [1] the test system is IFN production by activated immune cells (PBMC) from lupus patients. The assay is described as follows: IFN production by R848-activated PBMC from lupus patients, STING-37 reporter cell line. It is filed as cell-based, human. Particulars: 10 μM, PBMC from three SLE patients, FIG. 2. As to the method:
Material from Juvenile Dermatomyositis and Lupus patients were obtained from Necker Hospital, Paris, France or from Imagine Institute, Paris, France. The study was approved by the Conité des Protection des Personnes (ID-RCB/EUDRACT: 2014-A01017-40 and 2018-A01358-47) in France.
In vitro experiments were performed using human peripheral blood mononuclear cells (PBMCs) isolated by density centrifugation from peripheral blood leukocyte separation medium (Cambrex, Gaithersburg, Md.).
PBMCs were cultured in RPMI 1640 (Invitrogen, Gaithersburg, Md.) (R10) containing 10% heat-inactivated fetal bovine serum, 100 U/mL Penicilium and 100 μg/mL Streptomycin (1% Pen-Strep) and 1 mM glutamine (Hyclone, Logan, Utah).
1) The PBMCs used herein were prepared as described in part A “immune cells preparation”, section 1) above. PBMCs were seeded at 2.10^6/mL. […] Cells were then stimulated with the TLR7/8 agonist resiquimod—R848 (Invivogen) at 5 μg/mL. […]
1) To quantify the secretion of functional IFN, a biological assay based on a stable cell line where luciferase reporter gene is controlled by five Interferon-Stimulated Response Elements (STING37 cell line) was used. […] After 24 h of culture, luciferase activity was determined by adding 50 μL of Bright-Glo reagents (Promega) to culture wells and measuring bioluminescence with a luminometer.

The subject of assay [2] is TNFα production by monocytes (CD14+ cells). The assay is described as follows: Requirement of CXCR4 (siRNA knockdown or AMD3100) for the effect on TNFα production by monocytes from healthy donors. The format is cell-based, human. Particulars: AMD3100 20 μM 1 h, example 1 5 μM or example 2 1 μM, R848, FIG. 5B. As to the method: Monocytes were purified from PBMCs by positive selection with the CD14 microbeads (Miltenyi Biotec) and MACS column.
1) The PBMCs used herein were prepared as described in part A “immune cells preparation”, section 1) above. PBMCs were seeded at 2.10^6/mL. […] Cells were then stimulated with the TLR7/8 agonist resiquimod—R848 (Invivogen) at 5 μg/mL. When stated, AMD (20 μM) (Sigma-Aldrich, MO, USA) was added to the cells 1 h before incubation with example 1.
Isolated monocytes were seeded at 10^5 cells/100 μL in 96-well plates and incubated at 37° C. Cyclophilin B (control) and CXCR4 small interfering RNA (siRNA) (Smart Pool, Dharmarcon) was diluted in DOTAP (Roche Applied Sciences). The mix was gently mixed and incubated at room temperature for 15 minutes. After incubation, the mix was added to cells in culture at a final concentration of 160 nM. Finally, cells were incubated at 37° C. for 24 hours before stimulation.
R848-stimulated PBMCs were washed in PBS and then incubated with a viability stain (Zombie-Aqua, Biolegend) for 30 min at 4° C. After washing, the cells were resuspended in PBS containing 2% FCS and 2 mM EDTA and stained with the extracellular mix using APC-anti-BDCA4 (clone 12C2), FITC-anti-CD123 (clone 6H6), PerCP.cy5.5-anti-CD56 (clone 5.1H11), BV421-anti-HLADR (clone L243), PE.cy7-anti-CD19 (clone 4G7), APC-cy.7-anti-CD14 (clone M5E2) all from Biolegend and used at 1/200 and V500-anti-CD3 (BD Bioscience, clone SP34-2, 1/200). For the TNFα intracellular staining a Fixation/Permeabilization Solution Kit (BD Cytofix/Cytoperm) was used according to the manufacturer's protocol. Briefly, the cells were fixed for 10 min at 4° C. with 100 μL of the Fixation/Permeabilization solution then washed and stained in 100 μL of the BD Perm/Wash Buffer containing TNFα-APC (Miltenyi, 1/500) antibody for 1 h at 4° C. Data acquisition was performed on a Canto II flow cytometer using Diva software (BD Biosciences, San Jose, Calif.). FlowJo software (Treestar, Ashland, Oreg.) was used to analyze data.

The test system of a further assay is IL-1β. The assay is described as follows: Cytokine production by R848-activated PBMCs, LEGENDplex Human Inflammation panel 1: IL-1β. The format is cell-based. The conditions noted are these: Homo sapiens, PBMC, PBMCs from 2 healthy donors, R848 overnight, read-out: IC50 (μM) 1L-1β. How it is done: (§1) 2) The PBMCs used herein were prepared as described in part A “immune cells preparation”, section 2) above. PBMCs were seeded at 4.10^6/mL. […] Cells were then stimulated with the TLR7/8 agonist resiquimod—R848 (Sigma-Aldrich, MO, USA) at 5 μg/mL.
(§2) Cytokine expression levels were assessed using LEGENDplex Human inflammation panel 1 Kit (BioLegend, California, USA), which is a bead-based multiplex assay, using fluorescence-encoded beads. […] First, supernatants of R848-stimulated PBMCs were harvested after 24 h of stimulation and frozen at −20° C. for storage. Supernatants were dispensed into a 96-well V-bottom plate. Protocol pursued as per manufacturer recommendations (Manual for BioLegend LEGENDplex, Multi-Analyte Flow Assay Kit, Human Inflammation Panel 1, version 750000393_R01).

In another assay the test system is IL-12p70. The assay is described as follows: Cytokine production by R848-activated PBMCs, LEGENDplex Human Inflammation panel 1: IL-12p70. It is filed as cell-based. Particulars: Homo sapiens, PBMC, PBMCs from 2 healthy donors, R848 overnight. How it is done:
as §1, §2

In another assay the test system is IL-23. The assay is described as follows: Cytokine production by R848-activated PBMCs, LEGENDplex Human Inflammation panel 1: IL-23. It is filed as cell-based. The conditions noted are these: Homo sapiens, PBMC, PBMCs from 2 healthy donors, R848 overnight. How it is done:
as §1, §2

Counter-ions that a name gives are not always drawn.

As a reminder, the IC50 is the concentration needed to halve the response being measured. In the case of `CC1(C)CN2C(CSC3=NCC(C)(C)N3)=CSC2=N1` [Example 2, 3-(((5,5-dimethyl-4,5-dihydro-1H-imidazol-2-yl)thio)methyl)-6,6-dimethyl-5,6-dihydroimidazo[2,1-b]thiazole dihydrochloride], in assay [1], the “IFN production by activated PBMCs” value is “level similar to the one of unstimulated negative controls”. Moreover, the “TNFα production by activated monocytes in the presence of the example after pre-incubation with AMD3100” value in assay [2] is listed as “restored”. Besides, the results for the IC50 in the assay on IL-1β, in the assay with IL-12p70 and in the assay with IL-23 were 32 µM, 14 µM and 4.7 µM, respectively.

These data come from US20220144853A1, “IMIDAZOLINE DERIVATIVES AS CXCR4 MODULATORS” (Université de Paris, priority 2019, published 2022).
